Source: patent publication US20050004167A1, “Branched chain amino acid-dependent aminotransferase inhibitors and their use in the treatment of neurodegenerative diseases” (WARNER-LAMBERT COMPANY LLC, priority 2001, published 2005)
Where “and” joins values, the source holds several entries; their conditions need not be identical. Equal entries are not always repeated.

Legend:
rat BCAT cytosolic form = target: T1, rat BCAT cytosolic form (Rattus norvegicus, UniProt P54690); assay: In vitro coupled enzyme assay (glutamate dehydrogenase, NADH formation), rat BCATc; type: biochemical; conditions: recombinant rat BCATc, 37° C., 25 mM phosphate buffer pH 7.8; several values in a cell = repeat determinations; read-out: RrBCATc
T1 construct: made in house; host or cells: E. coli BL21(DE3)
T1 sequence (P54690 1-411): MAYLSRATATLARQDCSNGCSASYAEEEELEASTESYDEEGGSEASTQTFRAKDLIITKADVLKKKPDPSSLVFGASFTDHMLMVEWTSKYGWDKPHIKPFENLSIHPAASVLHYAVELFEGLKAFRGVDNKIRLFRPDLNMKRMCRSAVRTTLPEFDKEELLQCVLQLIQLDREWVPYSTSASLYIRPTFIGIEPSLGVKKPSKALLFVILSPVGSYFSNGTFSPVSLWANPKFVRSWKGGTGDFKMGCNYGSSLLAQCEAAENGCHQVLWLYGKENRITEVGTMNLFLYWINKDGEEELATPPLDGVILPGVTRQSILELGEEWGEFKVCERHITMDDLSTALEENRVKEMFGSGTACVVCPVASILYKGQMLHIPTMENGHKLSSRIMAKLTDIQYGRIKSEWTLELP
Procedure: In vitro enzyme assay—human Branched Chain Amino Acid Aminotransferase cytosolic form (hBCATc) and mitochondrial form (hBCATm) as well as rat BCAT cytosolic form were assayed at 37° C. in 25 mM phosphate buffer pH 7.8. In addition, 2 mM DTT and 12.5 mM […] were added to the assay mixture. A coupling enzyme assay was used to monitor the production of glutamate. The formation of NADH from NAD+ at […] was followed on a 96-well plate Molecular Devices plate reader.
The following components were used in this coupled assay: 4 mM ADP, 1 mM NAD+, 750 μM L-Leucine, 500 μM α-ketoglutarate, 10 μM pyridoxal phosphate, 1 unit glutamate dehydrogenase, and 1.25 μg of the appropriate BCAT enzyme. Inhibitions by compounds were assayed by adding various concentrations to this coupled assay procedure as a DMSO stock up to a 5% v/v DMSO/buffer ratio.
Enzyme Preparation—humanBCATc and ratBCATc were expressed in BL21(DE3) cells. A growing culture of cells was induced with 1 mM IPTG at room temperature overnight. These cells were harvested by centrifugation at 10,000 g for 20 minutes. The supernatant was discarded, and the cells were stored at −80° C. until needed. The protein was purified by the following method. The cell paste was resuspended in extraction buffer (0.1 M phosphate, pH 8.0, with 0.01 M Tris-HCL and 5 mM TCEP and then lysed on a French Press at 1000 psi. The lysate was centrifuged at 10,000 g for 15 minutes, and the pellet was discarded. The supernatant was loaded onto a Hitrap Chelating column previously charged with 0.1 M NiSO4 and washed with 3 to 4 column volumes of extraction buffer. The column was then washed with 0.01 Tris, pH 7.5, 10% glycerol, 150 mM NaCl, 5 mM TCEP for two column volumes. The column was then further washed with two column volumes of 0.1 M phosphate, pH 6.0, 0.01 M Tris, 10% glycerol and 750 mM NaCl. Finally, the column was washed with two column volumes of the same buffer plus 50 mM imidazole. The BCAT enzyme was then eluted with the same buffer but with 350 mM imidazole. The eluant was then dialyzed overnight against 10 mM phosphate buffer pH 8.0, 10% glycerol, and 5 mM TCEP. The dialyzed protein was then loaded onto a Q-sepharose column and eluted using a salt gradient. Active fractions were collected and further purified on a Superose-12 column to yield pure BCAT protein.

[1] = target: T2, human Branched Chain Amino Acid Aminotransferase cytosolic form (hBCATc) (Homo sapiens, UniProt P54687); assay: In vitro coupled enzyme assay (glutamate dehydrogenase, NADH formation), human BCATc; type: biochemical; conditions: recombinant human BCATc, 37° C., 25 mM phosphate buffer pH 7.8; several values in a cell = repeat determinations; read-out: RhBCATc
T2 construct: made in house; host or cells: E. coli BL21(DE3)
T2 sequence (P54687 1-386): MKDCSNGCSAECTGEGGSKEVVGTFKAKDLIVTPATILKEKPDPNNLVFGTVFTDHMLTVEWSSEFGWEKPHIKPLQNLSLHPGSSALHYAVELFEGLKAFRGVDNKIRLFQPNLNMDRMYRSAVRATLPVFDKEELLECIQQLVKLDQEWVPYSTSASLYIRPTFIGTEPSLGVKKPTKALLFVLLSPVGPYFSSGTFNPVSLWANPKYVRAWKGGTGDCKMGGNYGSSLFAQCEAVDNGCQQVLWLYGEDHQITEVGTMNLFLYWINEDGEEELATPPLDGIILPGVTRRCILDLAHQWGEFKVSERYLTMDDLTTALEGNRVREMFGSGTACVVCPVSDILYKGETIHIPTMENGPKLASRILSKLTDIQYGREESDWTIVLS
In short: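 At 37 °C in 25 mM phosphate pH 7.8 with 2 mM DTT, 1.25 μg His-tag-purified E. coli-expressed BCAT transaminated 750 μM L-leucine with 500 μM α-ketoglutarate and 10 μM PLP. Glutamate was coupled via glutamate dehydrogenase (1 mM NAD+, 4 mM ADP) to NADH formation at 340 nm. Compounds were added in DMSO up to 5% v/v.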

Row | IC50 (rat BCAT cytosolic form) | IC50 [1] | melting point | SMILES
1 | 0.13 µM | 2.6 µM | > 250 °C | O=C(NNS(=O)(=O)c1ccccc1)c1ccc2[nH]c3c(c2c1)CCCC3 [Example 2, 2,3,4,9-Tetrahydro-1H-carbazole-6-carboxylic acid 2-(phenylsulfonyl)hydrazide]
2 | 0.86 µM and 0.46 µM and 0.53 µM | 5.76 µM and 3 µM | 164 to 165 °C | COc1cccc2cc(C(=O)NNS(=O)(=O)c3ccccc3)oc12 [Example 5, 7-Methoxy-2-benzofurancarboxylic acid 2-(phenylsulfonyl)hydrazide]
3 | 0.39 µM and 0.2 µM | 3 µM and 3.1 µM | 208 to 209 °C | O=C(NNS(=O)(=O)c1cccc(Cl)c1)c1ccc2oc3ccccc3c2c1 [Example 16, 2-Dibenofurancarboxylic acid 2-[(3-chlorophenyl)sulfonyl]hydrazide]
4 | 1.1 µM and 0.54 µM | 11.4 µM | 235 to 236 °C | O=C(NNS(=O)(=O)c1ccccc1Cl)c1ccc2oc3ccccc3c2c1 [Example 17, 2-Dibenzofurancarboxylic acid 2-[(2-chlorophenyl)sulfonyl]hydrazide]
5 | 0.53 µM and 0.4 µM | 7.9 µM | 231 to 233 °C | O=C(NNS(=O)(=O)c1cc(Cl)cc(Cl)c1)c1ccc2oc3ccccc3c2c1 [Example 18, Dibenzofuran-2-carboxylic acid 2-(3,5-dichlorophenylsulfonyl)hydrazide]
6 | 0.22 µM | 6.7 µM | 192 to 194 °C | Cc1c(Cl)cccc1S(=O)(=O)NNC(=O)c1ccc2oc3ccccc3c2c1 [Example 19, Dibenzofuran-2-carboxylic acid 2-(3-chloro-2-methyl-phenylsulfonyl)hydrazide]
7 | 4.1 µM | 24.6 µM | 229.4 to 230.5 °C | O=C(NNS(=O)(=O)c1ccc(F)cc1)c1cc2cc(Cl)ccc2o1 [Example 22, 2-Benzofurancarboxylic acid, 5-chloro-2-[(4-fluorophenyl)]sulfonyl hydrazide]
8 | 5.4 µM | 17.8 µM | 182.7 to 183.3 °C | COc1cccc2cc(C(=O)NNS(=O)(=O)c3ccc(F)cc3)oc12 [Example 23, 2-Benzofurancarboxylic acid, 7-methoxy-, 2-[(4-fluoro-phenyl)sulfonyl]hydrazide]
9 | 1.2 µM | 24 µM | 206.3 to 207 °C | O=C(NNS(=O)(=O)c1ccc(F)cc1)c1ccc2oc3ccccc3c2c1 [Example 24, 2-Dibenzofurancarboxylic acid 2-[(4-fluorophenyl)sulfonyl]hydrazide]
10 | 1.8 µM | 21.9 µM | 227.5 to 227.8 °C | O=C(NNS(=O)(=O)c1ccc(F)cc1Cl)c1ccc2oc3ccccc3c2c1 [Example 25, 2-Dibenzofurancarboxylic acid 2-[(2-chloro-4-fluorophenyl)sulfonyl]hydrazide]
11 | 6.2 µM | 14.6 µM | – | Cc1ccc(S(=O)(=O)NNC(=O)c2ccc3ccccc3c2)cc1 [Example 112, 2-Naphthalenecarboxylic acid, 2-[(4-methylphenyl)sulfonyl]hydrazide]
12 | 0.53 µM | 4.1 µM | – | O=C(NNS(=O)(=O)c1ccccc1C(F)(F)F)c1ccc2ccccc2c1 [Example 113]
13 | 26.5 µM | 59.7 µM | – | O=C(NNS(=O)(=O)c1ccc(C(F)(F)F)cc1)c1ccc2ccccc2c1 [Example 114]
14 | 5.2 µM | 59.9 µM | – | O=C(NNS(=O)(=O)c1ccc(F)c(Cl)c1)c1ccc2ccccc2c1 [Example 115, 2-Naphthalenecarboxylic acid, 2-[(3-chloro-4-fluorophenyl)sulfonyl]hydrazide]
15 | 1.2 µM | 8.2 µM | – | COc1cccc(S(=O)(=O)NNC(=O)c2ccc3ccccc3c2)c1 [Example 116, 2-Naphthalenecarboxylic acid, 2-[(3-methoxyphenyl)sulfonyl]hydrazide]
16 | 0.82 µM | 5.7 µM | – | O=C(NNS(=O)(=O)c1cccc(Cl)c1)c1ccc2ccccc2c1 [Example 117, 2-Naphthalenecarboxylic acid, 2-[(3-chlorophenyl)sulfonyl]hydrazide]
17 | 1.8 µM | 25 µM | – | O=C(NNS(=O)(=O)c1ccccc1Cl)c1ccc2ccccc2c1 [Example 118, 2-Naphthalenecarboxylic acid, 2-[(2-chlorophenyl)sulfonyl]hydrazide]
18 | 2.2 µM | 12.7 µM | – | O=C(NNS(=O)(=O)c1cccc(F)c1)c1ccc2ccccc2c1 [Example 119, 2-Naphthalenecarboxylic acid, 2-[(3-fluorophenyl)sulfonyl]hydrazide]
19 | 2 µM | 18.1 µM | – | O=C(NNS(=O)(=O)c1cccc(Cl)c1Cl)c1ccc2ccccc2c1 [Example 120, 2-Naphthalenecarboxylic acid, 2-[(2,3-dichlorophenyl)sulfonyl]hydrazide]
20 | 11.6 µM | 55 µM | – | CCc1ccc(S(=O)(=O)NNC(=O)c2ccc3ccccc3c2)cc1 [Example 121, 2-Naphthalenecarboxylic acid, 2-[(4-ethylphenyl)sulfonyl]hydrazide]
21 | 56.7 µM | 58 µM | – | CCCCCc1ccc(S(=O)(=O)NNC(=O)c2cnc3ccccc3c2)cc1 [Example 122, 3-Quinolinecarboxylic acid, 2-[(4-pentylphenyl)sulfonyl)hydrazide]
22 | 2.2 µM | 11.6 µM | – | O=C(NNS(=O)(=O)c1ccccc1C(F)(F)F)c1cnc2ccccc2c1 [Example 123, 3-Quinolinecarboxylic acid, 2-[[2-(trifluoromethyl)phenyl]sulfonyl]hydrazide]
23 | 2.4 µM | 18.4 µM | – | Cc1cccc(S(=O)(=O)NNC(=O)c2cnc3ccccc3c2)c1 [Example 125, 3-Quinolinecarboxylic acid, 2-[(3-methylphenyl)sulfonyl]hydrazide]
24 | 12.5 µM | 36.2 µM | – | O=C(NNS(=O)(=O)c1ccccc1OC(F)(F)F)c1cnc2ccccc2c1 [Example 126, 3-Quinolinecarboxylic acid, 2-[[2-(trifluoromethoxy)phenyl]sulfonyl]hydrazide]
25 | 2.5 µM | 17.8 µM | – | O=C(NNS(=O)(=O)c1ccccc1)c1cc2ccccc2o1 [Example 146, Benzofuran-2-carboxylic acid 2-(phenylsulfonyl)hydrazide]
26 | 1.9 µM | 15.3 µM | – | O=C(NNS(=O)(=O)c1ccccc1)c1ccc2[nH]ccc2c1 [Example 153, 1H-Indole-5-carboxylic acid 2-(phenylsulfonyl)hydrazide]
27 | 3.6 µM | 24.2 µM | – | O=C(NNS(=O)(=O)c1ccccc1)c1cnc2ccccc2c1 [Example 154, Quinoline-3-carboxylic acid 2-(phenylsulfonyl)hydrazide]
